As usually defined, the IC50 is the concentration that inhibits the measured activity by half.

Where a name gives a salt, the structure may show the parent alone. Bounds are passed on as bounds.

One experiment concerns A549. Kind of experiment: Antiproliferative activity against human A549 cells after 48 hrs by MTS assay. The note with it: A549, 48 h. It counts as functional, cell-based. For orientation: Tetrazolium assays rely on reduction of a dye to a coloured formazan, in cell work by metabolically active cells.
A further experiment concerns SK-MEL-5. Nature of the experiment: Antiproliferative activity against human SK-MEL-5 cells after 48 hrs by MTS assay. Type of experiment: functional, cell-based. The note with it: SK-MEL-5, 48 h.
Another experiment relates to HT-29. Nature of the experiment: Antiproliferative activity against human HT-29 cells after 48 hrs by MTS assay. Type of experiment: functional, cell-based. The note with it: HT-29, 48 h.
The nature of experiment [1]: Fe2+ chelating activity of the compound incubated for 5 mins prior to ferrozine-addition measured after 10 mins by spectrophotometry. It counts as functional. Also noted: concentration or dose not given beside the values.
A further experiment deals with HepG2. Nature of the experiment: Antiproliferative activity against human HepG2 cells after 48 hrs by MTS assay. It counts as functional, cell-based. The note with it: HepG2, 48 h.
The test system of the next experiment is MCF7. Nature of the experiment: Antiproliferative activity against human MCF7 cells after 48 hrs by MTS assay. Type of experiment: functional, cell-based. The note with it: MCF7, 48 h.
A further experiment concerns DU-145. Nature of the experiment: Antiproliferative activity against human DU145 cells after 48 hrs by MTS assay. Type of experiment: functional, cell-based. The note with it: DU-145, 48 h.
In a further experiment the test system is MDA-MB-231. Nature of the experiment: Antiproliferative activity against human MDA-MB-231 cells after 48 hrs by MTS assay. Type of experiment: functional, cell-based. The note with it: MDA-MB-231, 48 h.
The test system of another experiment is BXPC-3. Nature of the experiment: Antiproliferative activity against human BxPC3 cells after 48 hrs by MTS assay. It counts as functional, cell-based. The note with it: BXPC-3, 48 h.

As for `CC(=O)O[C@@H]1[C@@H](O)[C@@H](O)[C@H](Oc2c(-c3ccc(O)cc3)oc3cc(O)cc(O)c3c2=O)O[C@H]1C`, the IC50 with A549, in the experiment with SK-MEL-5, in the experiment on HT-29, in the experiment on HepG2, with MCF7 and in the experiment on DU-145 was over 150 µM each time. Besides, the IC50 with MDA-MB-231 and in the experiment with BXPC-3 was over 150 µM in each case. The same compound returned an Activity in experiment [1] of 29.1%.
In the case of `CC(=O)O[C@@H]1[C@@H](O)[C@@H](OC(C)=O)[C@H](Oc2c(-c3ccc(O)cc3)oc3cc(O)cc(O)c3c2=O)O[C@H]1C`, the half-maximal inhibitory concentration (IC50) in the experiment with A549, in the experiment with SK-MEL-5, in the experiment on HT-29, with HepG2, with MCF7 and in the experiment with DU-145 was over 150 µM each time. The IC50 was over 150 µM in the experiment on MDA-MB-231 and 113 µM in the experiment with BXPC-3. The Activity in experiment [1] was 49.1%.
Turning to `CC(=O)O[C@@H]1[C@@H](O)[C@@H](O)[C@H](Oc2c(-c3ccc(O)cc3)oc3cc(O)c(-c4c(O)cc(O)c5c(=O)c(O[C@@H]6O[C@@H](C)[C@H](OC(C)=O)[C@@H](O)[C@H]6O)c(-c6ccc(O)cc6)oc45)c(O)c3c2=O)O[C@H]1C`, in experiment [1], the Activity was 87.4%.
`CC(=O)O[C@@H]1[C@@H](O)[C@H](C)O[C@@H](Oc2c(-c3ccc(O)cc3)oc3cc(O)cc(O)c3c2=O)[C@@H]1OC(C)=O` gave an Activity in experiment [1] of 52.2%.
In turn, `CC(=O)O[C@@H]1[C@@H](OC(C)=O)[C@@H](O)[C@H](Oc2c(-c3ccc(O)cc3)oc3cc(O)cc(O)c3c2=O)O[C@H]1C` returned an Activity in [1] of 55.4%.
In experiment [1], `O=c1c(O)c(-c2ccc(O)cc2)oc2cc(O)cc(O)c12` came in with an Activity of 12.1%.
Turning to `COc1cc(/C=C/C(=O)CC(=O)/C=C/c2ccc(O)c(OC)c2)ccc1O` [CURCUMIN], the IC50 in the experiment on A549 stood at 62.6 µM; in the experiment on SK-MEL-5, 50.4 µM; in the experiment with HT-29, 15.9 µM; in the experiment with HepG2, 59.4 µM; with MCF7, 65.2 µM; in the experiment with DU-145, 38.2 µM. For the same compound, the values for the IC50 with MDA-MB-231 and in the experiment with BXPC-3 were 64.7 µM and 11.4 µM, respectively. In [1], the Activity is 37.9%.
Consider `COc1cc(/C=C/C(O)=C/C(=O)/C=C/c2ccc(O)cc2)ccc1O` [DEMETHOXYCURCUMIN], for which the half-maximal inhibitory concentration (IC50) with A549 came to 74.1 µM; with SK-MEL-5, 61.4 µM; with HT-29, 19.4 µM; in the experiment with HepG2, 80 µM; with MCF7 it was 75.3 µM; with DU-145, 48.1 µM. The IC50 was 87.5 µM with MDA-MB-231 and 24.1 µM with BXPC-3. This compound also registered an Activity in experiment [1] of 50.9%.
Consider `CC[C@]1(O)C[C@@H]2CN(CCc3c([nH]c4ccccc34)[C@@](C(=O)OC)(c3cc4c(cc3OC)N(C)[C@H]3[C@@](O)(C(=O)OC)[C@H](OC(C)=O)[C@]5(CC)C=CCN6CC[C@]43[C@@H]65)C2)C1` [VINBLASTINE SULFATE], for which the IC50 in the experiment on A549 turned out to be 2.36 µM; in the experiment on SK-MEL-5, 1.74 µM; in the experiment on HT-29 it was 11.2 µM; with HepG2 it was 0.16 µM; in the experiment on MCF7, 24.1 µM; in the experiment on DU-145, 4.25 µM. In addition, the 50% inhibitory concentration (IC50) with MDA-MB-231 is 31.5 µM; with BXPC-3, 1.13 µM.
